Among the data in paper PMC3794980, “Identification of Conserved and HLA Promiscuous DENV3 T-Cell Epitopes” (PLoS Neglected Tropical Diseases, 2013) are IC50 values, retold here.

As usually defined, the IC50 is the concentration that gives 50% inhibition.

Where no end group is shown, it is not given here.

Targets include DRB5*0101 (Homo sapiens, UniProt P01903+Q30154); DRB3*0101 (Homo sapiens, UniProt P01903+P79483); DRB4*0101 (Homo sapiens, UniProt P01903+P13762, G164S).
What all share (experiment): biochemical
Holding throughout (format): binding

As to `CC[C@H](C)[C@H](NC(=O)CNC(=O)[C@H](CO)NC(=O)[C@H](CCCCN)NC(=O)[C@H](CCCCN)NC(=O)[C@H](Cc1ccc(O)cc1)NC(=O)[C@H](CC(C)C)NC(=O)[C@H](CC(=O)O)NC(=O)[C@H](Cc1ccccc1)NC(=O)[C@H](CCC(=O)O)NC(=O)[C@@H](N)CCCCN)C(=O)N[C@H](C(=O)N[C@@H](CCC(=O)O)C(=O)N[C@H](C(=O)N[C@@H](CC(=O)O)C(=O)N[C@@H](CCCNC(=N)N)C(=O)N[C@H](C(=O)O)[C@@H](C)O)C(C)C)[C@@H](C)O` [NS5 23-39], the IC50 on DRB5*0101 amounted to 10.1 µM; against DRB3*0101, 5.8 µM; at DRB4*0101, 3.43 µM.
Take `CC(C)C[C@H](NC(=O)[C@H](CCCNC(=N)N)NC(=O)[C@H](CCCCN)NC(=O)[C@@H]1CCCN1C(=O)[C@H](CO)NC(=O)[C@H](CC(=O)O)NC(=O)[C@H](C)NC(=O)[C@H](CCC(N)=O)NC(=O)[C@H](Cc1ccccc1)NC(=O)[C@H](CCCCN)NC(=O)[C@H](Cc1ccc(O)cc1)NC(=O)[C@H](CCC(N)=O)NC(=O)[C@H](CCC(=O)O)NC(=O)[C@@H](N)[C@@H](C)O)C(=O)N[C@@H](C)C(=O)O` [NS1 29-43]: the half-maximal inhibitory concentration (IC50) against DRB5*0101 was 0.023 µM; against DRB3*0101 it was 0.011 µM; against DRB4*0101, 14.4 µM.
The like results for `CC[C@H](C)[C@H](N)C(=O)NCC(=O)N[C@@H](CCCCN)C(=O)N[C@@H](CCSC)C(=O)N[C@@H](Cc1ccccc1)C(=O)N[C@@H](CCC(=O)O)C(=O)N[C@@H](C)C(=O)N[C@H](C(=O)N[C@@H](C)C(=O)N[C@@H](CCCNC(=N)N)C(=O)NCC(=O)N[C@@H](C)C(=O)N[C@@H](CCCNC(=N)N)C(=O)N[C@@H](CCCNC(=N)N)C(=O)N[C@@H](CCSC)C(=O)O)[C@@H](C)O` [Envelope 396-410] were, in that order, 0.027 µM, 0.424 µM and 3.61 µM.
On the same counts, the results for `CSCC[C@H](NC(=O)[C@H](CCSC)NC(=O)[C@H](CC(N)=O)NC(=O)[C@H](Cc1ccc(O)cc1)NC(=O)[C@@H](NC(=O)[C@H](CS)NC(=O)[C@H](CO)NC(=O)CN)C(C)C)C(=O)NCC(=O)N[C@@H](CCCCN)C(=O)N[C@@H](CCCNC(=N)N)C(=O)N[C@@H](CCC(=O)O)C(=O)N[C@@H](CCCCN)C(=O)N[C@@H](CCCCN)C(=O)N[C@@H](CC(C)C)C(=O)NCC(=O)N[C@@H](CCC(=O)O)C(=O)O` [NS5 447-463] are 0.025 µM, 1.76 µM and 8.47 µM.
Take `CC[C@H](C)[C@H](NC(=O)[C@@H](N)C(C)C)C(=O)N[C@@H](CC(C)C)C(=O)N[C@H](C(=O)N[C@@H](CC(=O)O)C(=O)NCC(=O)N1CCC[C@H]1C(=O)N[C@@H](CCC(=O)O)C(=O)N[C@@H](CCCNC(=N)N)C(=O)N[C@H](C(=O)N[C@H](C(=O)N[C@@H](CC(C)C)C(=O)N[C@@H](C)C(=O)NCC(=O)N1CCC[C@H]1C(=O)O)[C@@H](C)CC)C(C)C)[C@@H](C)O` [NS3 433-447]: the values for the IC50 against DRB5*0101, on DRB3*0101 and against DRB4*0101 were 8.29 µM, 0.134 µM and 3.51 µM, respectively.
The like results for LGSQEGAMHTALTGA [Envelope 251-265] were, in that order, 0.722 µM, 5.59 µM and 7.21 µM.
Turning to `CC[C@H](C)[C@H](N)C(=O)N[C@H](C(=O)N[C@H](C(=O)NCC(=O)N[C@H](C(=O)NCC(=O)N[C@@H](CC(=O)O)C(=O)N[C@@H](CC(N)=O)C(=O)N[C@@H](C)C(=O)N[C@@H](CC(C)C)C(=O)N[C@@H](CCCCN)C(=O)N[C@H](C(=O)N[C@@H](CC(N)=O)C(=O)N[C@@H](Cc1c[nH]c2ccccc12)C(=O)N[C@@H](Cc1ccc(O)cc1)C(=O)O)[C@@H](C)CC)[C@@H](C)CC)[C@@H](C)CC)C(C)C` [Envelope 376-390], the IC50 came out at 1.25 µM against DRB5*0101, 0.015 µM against DRB3*0101 and 1.24 µM on DRB4*0101.
On the same counts, the results for `CC[C@H](C)[C@H](N)C(=O)N[C@H](C(=O)NCC(=O)N[C@H](C(=O)N[C@@H](CC(C)C)C(=O)N[C@@H](CCC(=O)O)C(=O)N[C@@H](CCC(N)=O)C(=O)NCC(=O)N[C@@H](CCCCN)C(=O)N[C@@H](CCCNC(=N)N)C(=O)N[C@H](C(=O)N[C@@H](CC(C)C)C(=O)N[C@H](C(=O)N1CCC[C@H]1C(=O)N[C@@H](CCC(N)=O)C(=O)O)[C@@H](C)O)[C@@H](C)O)C(C)C)[C@@H](C)CC` [NS1 93-107] are 3.07 µM, 4.35 µM and 3.7 µM.
The like results for `CC[C@H](C)[C@H](NC(=O)[C@H](CS)NC(=O)[C@H](Cc1ccccc1)NC(=O)[C@H](CCC(N)=O)NC(=O)[C@@H](N)CC(N)=O)C(=O)N[C@@H](CCCCN)C(=O)N[C@H](C(=O)N[C@@H](CC(C)C)C(=O)N[C@@H](CC(N)=O)C(=O)N1CCC[C@H]1C(=O)N[C@@H](Cc1ccc(O)cc1)C(=O)N[C@@H](CCSC)C(=O)N1CCC[C@H]1C(=O)N[C@H](C(=O)N[C@H](C(=O)N[C@H](C(=O)N[C@@H](CCC(=O)O)C(=O)O)[C@@H](C)CC)C(C)C)[C@@H](C)O)C(C)C` [NS5 175-191] were, in that order, 0.722 µM, 1.34 µM and 6.64 µM.
On the same counts, the results for `CC[C@H](C)[C@H](NC(=O)CNC(=O)[C@@H](NC(=O)[C@@H](NC(=O)[C@@H](NC(=O)[C@H](CC(N)=O)NC(=O)[C@H](CO)NC(=O)[C@H](CCC(=O)O)NC(=O)CNC(=O)[C@H](Cc1ccccc1)NC(=O)[C@@H]1CCCN1C(=O)[C@@H]1CCCN1C(=O)[C@H](CCC(=O)O)NC(=O)[C@H](C)NC(=O)[C@@H](N)CCC(=O)O)[C@@H](C)CC)C(C)C)[C@@H](C)CC)C(=O)O` [Envelope 366-380] are 12.5 µM, 3.24 µM and 3.81 µM.
`CC[C@H](C)[C@H](NC(=O)[C@@H](NC(=O)[C@H](CCCNC(=N)N)NC(=O)[C@H](CCC(=O)O)NC(=O)[C@@H]1CCCN1C(=O)CNC(=O)[C@H](CC(=O)O)NC(=O)[C@@H](NC(=O)[C@H](CC(C)C)NC(=O)[C@@H](NC(=O)[C@@H](NC(=O)[C@@H]1CCCN1C(=O)[C@H](CCCCN)NC(=O)[C@H](CC(C)C)NC(=O)[C@@H](N)CS)C(C)C)[C@@H](C)CC)[C@@H](C)O)C(C)C)C(=O)O` [NS3 429-443]: the IC50 worked out at 13.2 µM at DRB5*0101, 0.0057 µM against DRB3*0101 and 1.21 µM on DRB4*0101.
Regarding `CC(C)C[C@H](N)C(=O)N[C@H](C(=O)N[C@@H](Cc1ccc(O)cc1)C(=O)N[C@@H](CCC(N)=O)C(=O)N[C@@H](CC(N)=O)C(=O)N[C@@H](CCCCN)C(=O)N[C@H](C(=O)N[C@H](C(=O)N[C@@H](CCCCN)C(=O)N[C@H](C(=O)N[C@@H](CCC(N)=O)C(=O)N[C@@H](CCCNC(=N)N)C(=O)N1CCC[C@H]1C(=O)N[C@H](C(=O)N1CCC[C@H]1C(=O)N[C@@H](CCCCN)C(=O)NCC(=O)O)[C@@H](C)O)C(C)C)C(C)C)C(C)C)[C@@H](C)O` [NS5 570-586], the concentration for half-maximal inhibition (IC50) on DRB5*0101 stood at 0.028 µM; on DRB3*0101, 4.57 µM; against DRB4*0101 it was 0.013 µM.
On the same counts, the results for `CC[C@H](C)[C@H](NC(=O)[C@H](C)NC(=O)CNC(=O)[C@@H](NC(=O)[C@H](CCC(=O)O)NC(=O)CN)[C@@H](C)CC)C(=O)N[C@@H](C)C(=O)N[C@@H](CC(C)C)C(=O)N[C@@H](CC(=O)O)C(=O)N[C@@H](Cc1ccccc1)C(=O)N[C@@H](CCCCN)C(=O)N1CCC[C@H]1C(=O)NCC(=O)N[C@H](C(=O)N[C@@H](CO)C(=O)O)[C@@H](C)O` [NS3 121-135] are 11.9 µM, 2.21 µM and 0.04 µM.
With `CC[C@H](C)[C@H](NC(=O)[C@H](CCC(=O)O)NC(=O)CNC(=O)[C@H](CCCNC(=N)N)NC(=O)[C@H](CCCCN)NC(=O)[C@@H](N)CC(C)C)C(=O)N[C@H](C(=O)N[C@@H](Cc1c[nH]cn1)C(=O)N[C@@H](Cc1c[nH]cn1)C(=O)N[C@@H](C)C(=O)N[C@H](C(=O)N[C@@H](CO)C(=O)N[C@@H](CCCNC(=N)N)C(=O)NCC(=O)N[C@@H](CO)C(=O)N[C@@H](C)C(=O)N[C@@H](CCCCN)C(=O)O)C(C)C)[C@@H](C)O` [NS5 45-61], the 50% inhibitory concentration (IC50) on DRB5*0101 amounted to 0.449 µM; on DRB3*0101, 7.5 µM; against DRB4*0101, 0.0085 µM.
The like results for `CC[C@H](C)[C@H](NC(=O)[C@H](CC(C)C)NC(=O)[C@H](CO)NC(=O)CNC(=O)[C@H](CS)NC(=O)[C@H](Cc1c[nH]c2ccccc12)NC(=O)[C@H](CCC(N)=O)NC(=O)[C@H](CC(=O)O)NC(=O)[C@H](CCC(=O)O)NC(=O)[C@H](CCCNC(=N)N)NC(=O)[C@H](CCCCN)NC(=O)CNC(=O)[C@H](CC(C)C)NC(=O)[C@@H](N)Cc1ccc(O)cc1)C(=O)NCC(=O)N[C@@H](CC(C)C)C(=O)N[C@H](C(=O)O)[C@@H](C)O` [NS5 838-854] were, in that order, 15.5 µM, 0.079 µM and 1.59 µM.
On the same counts, the results for ALTGATEIQNSGGTS [Envelope 261-275] are 3.67 µM, 17.5 µM and 8.57 µM.
Turning to MRCVGVGNRDFVEGL [Envelope 1-15], the half-inhibitory concentration (IC50) is 4.83 µM against DRB5*0101, 2.84 µM against DRB3*0101 and 3.77 µM against DRB4*0101.
Take GTILVKVEYKGEDAP [Envelope 316-330]: the 50% inhibitory concentration (IC50) on DRB5*0101 turned out to be 5.26 µM; on DRB3*0101 it was 5.29 µM; on DRB4*0101 it was 6.03 µM.
On the same counts, the results for `CC[C@H](C)[C@H](NC(=O)[C@H](CC(C)C)NC(=O)[C@H](CCC(=O)O)NC(=O)[C@H](CC(=O)O)NC(=O)[C@H](CCC(N)=O)NC(=O)[C@@H]1CCCN1C(=O)[C@H](CCCNC(=N)N)NC(=O)[C@H](CS)NC(=O)[C@@H]1CCCN1C(=O)[C@@H](NC(=O)[C@@H](NC(=O)[C@H](CC(C)C)NC(=O)[C@H](CCCCN)NC(=O)[C@H](CCCNC(=N)N)NC(=O)CNC(=O)[C@H](CC(=O)O)NC(=O)[C@@H](N)CCCCN)C(C)C)C(C)C)C(=O)O` [NS5 719-735] are 3.44 µM, 5.68 µM and 17.8 µM.
